Test results as given in patent publication US20100168102A9, “Amide Derivatives as Kinase Inhibitors” (Devgen NV, priority 2005, published 2010).
Structures can show the parent of a compound that is named as a salt. Where two headings read alike, the source gives them in different places.

How the values were obtained:
human ROCKα/ROCKII mix = target: T1, human ROCKα/ROCKII mix (Homo sapiens, UniProt O75116); assay: Biochemical assay for ROCK (fluorescence polarization, ROCK IMAP Kit)
T1 construct: purchased Upstate Biotechnology 14-451
T1 sequence (O75116 11-552 limits assumed): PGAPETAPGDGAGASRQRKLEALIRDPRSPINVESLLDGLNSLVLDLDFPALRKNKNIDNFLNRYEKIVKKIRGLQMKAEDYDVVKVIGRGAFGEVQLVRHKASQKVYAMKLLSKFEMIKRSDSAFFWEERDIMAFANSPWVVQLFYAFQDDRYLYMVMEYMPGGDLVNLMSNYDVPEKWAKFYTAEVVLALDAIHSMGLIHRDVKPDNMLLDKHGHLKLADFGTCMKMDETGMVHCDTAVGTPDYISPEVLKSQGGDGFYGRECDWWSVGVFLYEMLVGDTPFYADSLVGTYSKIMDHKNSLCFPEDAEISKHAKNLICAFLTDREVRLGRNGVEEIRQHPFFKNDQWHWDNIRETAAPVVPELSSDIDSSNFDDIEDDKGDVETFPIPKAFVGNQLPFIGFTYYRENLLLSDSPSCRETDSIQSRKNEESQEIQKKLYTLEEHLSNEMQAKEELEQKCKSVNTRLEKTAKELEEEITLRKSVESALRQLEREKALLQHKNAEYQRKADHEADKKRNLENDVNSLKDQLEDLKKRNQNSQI

PKC epsilon = target: T2, PKC epsilon (Homo sapiens, UniProt Q02156); assay: Biochemical assay for PKC epsilon (fluorescence polarization, Protein Kinase C Assay Kit, Red); conditions: read-out: IC50 μM PKCε
T2 construct: purchased Invitrogen P2282
T2 sequence (Q02156 1-737): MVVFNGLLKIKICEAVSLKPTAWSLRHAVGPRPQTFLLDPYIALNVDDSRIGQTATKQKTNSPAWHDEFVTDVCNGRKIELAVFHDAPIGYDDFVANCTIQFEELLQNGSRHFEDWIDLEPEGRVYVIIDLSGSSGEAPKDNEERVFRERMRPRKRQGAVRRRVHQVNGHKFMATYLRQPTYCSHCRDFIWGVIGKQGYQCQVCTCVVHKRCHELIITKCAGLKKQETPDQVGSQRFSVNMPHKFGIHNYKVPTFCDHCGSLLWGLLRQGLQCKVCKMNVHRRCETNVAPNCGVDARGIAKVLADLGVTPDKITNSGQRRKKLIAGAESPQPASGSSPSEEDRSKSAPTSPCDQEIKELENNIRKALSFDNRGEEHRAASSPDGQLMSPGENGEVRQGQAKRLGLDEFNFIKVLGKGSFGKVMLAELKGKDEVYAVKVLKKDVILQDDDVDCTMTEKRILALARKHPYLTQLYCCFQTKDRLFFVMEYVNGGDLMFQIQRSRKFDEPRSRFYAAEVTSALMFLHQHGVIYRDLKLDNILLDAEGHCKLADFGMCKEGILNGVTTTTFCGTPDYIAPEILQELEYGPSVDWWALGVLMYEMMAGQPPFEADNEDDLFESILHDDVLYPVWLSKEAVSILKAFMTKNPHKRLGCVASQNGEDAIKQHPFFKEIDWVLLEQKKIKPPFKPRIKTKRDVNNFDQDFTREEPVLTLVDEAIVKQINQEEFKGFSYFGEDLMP
In short: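 PKC epsilon at 10 ng/ml final was preincubated 30 min at room temperature with compound in HEPES pH 7.4 with DTT and Triton X-100. ATP/protein substrate was then added in buffer with MgCl2 and CaCl2 for 80 min. The reaction was stopped with EDTA, phosphorylation was detected by fluorescence polarization with rhodamine tracer and anti-phosphoserine antibody, and IC50 values came from curve fits.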

[1] = Table 2, compounds of Formula XIII
[2] = compounds of Formula XIV, Table 3

Compound	IC50 (human ROCKα/ROCKII mix)	IC50 (PKC epsilon)	IC50 (human ROCKα/ROCKII mix; [2])	IC50 (PKC epsilon; [2])	other results
NC(c1ccc(C(=O)Nc2ccncc2)cc1)C1CCCN1C(=O)Cc1ccc(F)cc1Cl (centres unmarked) [Compound 599, 4-(Amino-{1-[2-(2-chloro-4-fluoro-phenyl)-acetyl]-pyrrolidin-2-yl}-methyl)-N-pyridin-4-yl-benzamide]	0.5 to 5 µM	0.5 to 5 µM			
Nc1c(C(=O)NCC(N)c2ccc(C(=O)Nc3ccncc3)cc2)cnn1-c1ccc(F)cc1 (centres unmarked) [Compound 123, 5-Amino-1-(4-fluorophenyl)-1H-pyrazole-4-carboxylic acid {2-amino-2-[4-(pyridin-4-ylcarbamoyl)-phenyl]-ethyl}-amide]					IC50 (human ROCKα/ROCKII mix; [1]): 0.5 to 5 µM; IC50 (PKC epsilon; [1]): 5 to 50 µM
CN(CC(N)c1ccc(C(=O)Nc2ccncc2)cc1)C(=O)C1(c2ccc(F)cc2)CCC1 (centres unmarked) [Compound 474, 4-(1-Amino-2-{[1-(4-fluoro-phenyl)-cyclobutanecarbonyl]-methyl-amino}-ethyl)-N-pyridin-4-yl-benzamide]	0.5 to 5 µM	0.5 to 5 µM			
CN(CC(N)c1ccc(C(=O)Nc2ccncc2)cc1)C(=O)C1(c2ccc(F)cc2)CCCC1 (centres unmarked) [Compound 475, 4-(1-Amino-2-{[1-(4-fluoro-phenyl)-cyclopentanecarbonyl]-methyl-amino}-ethyl)-N-pyridin-4-yl-benzamide]	0.5 to 5 µM	0.5 to 5 µM			
CC(CNC(=O)CC(N)c1ccc(C(=O)Nc2ccncc2)cc1)c1ccccc1 (centres unmarked) [Compound 283, 4-[1-Amino-2-(2-phenyl-propyl-carbamoyl)-ethyl]-N-pyridin-4-yl-benzamide]			0.05 to 0.5 µM	0.5 to 5 µM	
NC(CNC(=O)c1ccoc1)c1ccc(C(=O)Nc2ccncc2)cc1 (centres unmarked) [Compound 119, Furan-3-carboxylic acid {2-amino-2-[4-(pyridin-4-ylcarbamoyl)-phenyl]-ethyl}-amide]					IC50 (human ROCKα/ROCKII mix; [1]): 0.05 to 0.5 µM; IC50 (PKC epsilon; [1]): 0.5 to 5 µM
CN(CC(N)c1ccc(C(=O)Nc2ccncc2)cc1)C(=O)Cc1cccc(Cl)c1F (centres unmarked) [Compound 501, 4-(1-Amino-2-{[2-(3-chloro-2-fluoro-phenyl)-acetyl]-methyl-amino}-ethyl)-N-pyridin-4-yl-benzamide]	0.5 to 5 µM	5 to 50 µM			
NC(CNC(=O)Cc1cccs1)c1ccc(C(=O)Nc2ccncc2)cc1 (centres unmarked) [Compound 153, 4-[1-amino-2-(2-thiophen-2-yl-acetylamino)-ethyl]-N-pyridin-4-yl-benzamide]					IC50 (human ROCKα/ROCKII mix; [1]): 0.05 to 0.5 µM; IC50 (PKC epsilon; [1]): 0.5 to 5 µM
NC(CNC(=O)c1cccc(Oc2ccccc2)c1)c1ccc(C(=O)Nc2ccncc2)cc1 (centres unmarked) [Compound 77, 4-[1-amino-2-(3-phenoxy-benzoylamino)-ethyl]-N-pyridin-4-yl-benzamide]					IC50 (human ROCKα/ROCKII mix; [1]): 0.5 to 5 µM; IC50 (PKC epsilon; [1]): 5 to 50 µM
NC(CC(=O)NCc1cccc(Cl)c1)c1ccc(C(=O)Nc2ccncc2)cc1 (centres unmarked) [Compound 248, 4-[1-Amino-2-(3-chloro-benzylcarbamoyl)-ethyl]-N-pyridin-4-yl-benzamide]			0.05 to 0.5 µM	0.05 to 0.5 µM	
NC(CC(=O)NCc1ccccc1Cl)c1ccc(C(=O)Nc2ccncc2)cc1 (centres unmarked) [Compound 246, 4-[1-Amino-2-(2-chloro-benzylcarbamoyl)-ethyl]-N-pyridin-4-yl-benzamide]			0.05 to 0.5 µM	0.5 to 5 µM	
NC(CNC(=O)Nc1ccc2ccccc2c1)c1ccc(C(=O)Nc2ccncc2)cc1 (centres unmarked) [Compound 23, 4-[1-amino-2-(3-naphtalen-2-yl-ureido)-ethyl]-N-pyridin-4-yl-benzamide]	0.05 to 0.5 µM	0.5 to 5 µM			
CN(CC(N)c1ccc(C(=O)Nc2ccncc2)cc1)C(=O)C1(c2ccc(Cl)cc2F)CC1 (centres unmarked) [Compound 504, 4-(1-Amino-2-{[1-(4-chloro-2-fluoro-phenyl)-cyclopropanecarbonyl]-methyl-amino}-ethyl)-N-pyridin-4-yl-benzamide]	0.5 to 5 µM	0.5 to 5 µM			
NC(c1ccc(C(=O)Nc2ccncc2)cc1)C1CCCN1C(=O)Cc1cc(F)cc(F)c1 (centres unmarked) [Compound 583, 4-(Amino-{1-[2-(3,5-difluoro-phenyl)-acetyl]-pyrrolidin-2-yl}-methyl)-N-pyridin-4-yl-benzamide]	0.5 to 5 µM	5 to 50 µM			
CN(CC(N)c1ccc(C(=O)Nc2ccncc2)cc1)C(=O)C1(c2ccc(F)c(F)c2)CCC1 (centres unmarked) [Compound 487, 4-(1-Amino-2-{[1-(3,4-difluoro-phenyl)-cyclobutanecarbonyl]-methyl-amino}-ethyl)-N-pyridin-4-yl-benzamide]	0.5 to 5 µM	0.5 to 5 µM			
N[C@H](CC(=O)N[C@@H]1COc2ccccc21)c1ccc(C(=O)Nc2ccncc2)cc1 [Compound 405, 4-{(R)-1-Amino-2-[(S)-(2,3-dihydro-benzofuran-3-yl)carbamoyl]-ethyl}-N-pyridin-4-yl-benzamide]	< 0.05 µM	< 0.05 µM			

Compound	IC50 (human ROCKα/ROCKII mix)	IC50 (PKC epsilon)	IC50 (human ROCKα/ROCKII mix; [2])	IC50 (PKC epsilon; [2])	other results
NC(CNC(=O)c1ccccc1Oc1ccccc1)c1ccc(C(=O)Nc2ccncc2)cc1 (centres unmarked) [Compound 76, 4-[1-amino-2-(2-phenoxy-benzoylamino)-ethyl]-N-pyridin-4-yl-benzamide]					IC50 (human ROCKα/ROCKII mix; [1]): 0.5 to 5 µM; IC50 (PKC epsilon; [1]): 0.5 to 5 µM
4-{1-Amino-2-[(pyridin-2- ylmethyl)-carbamoyl]-ethyl}- N-pyridin-4-yl-benzamide [Compound 277]			0.05 to 0.5 µM	0.5 to 5 µM	
NC(CC(=O)NCC1CCCO1)c1ccc(C(=O)Nc2ccncc2)cc1 (centres unmarked) [Compound 184, 4-{1-amino-2-[(tetrahydro-furan-2-ylmethyl)-carbamoyl]-ethyl}-N-pyridin-4-yl-benzamide]			0.05 to 0.5 µM	0.5 to 5 µM	
N[C@H](CC(=O)NC1COc2ccccc21)c1ccc(C(=O)Nc2ccncc2)cc1 (mixture of isomers) [Compound 403, 4-[(R)-1-Amino-2-(2,3-dihydro-benzofuran-3-ylcarbamoyl)-ethyl]-N-pyridin-4-yl-benzamide dihydrochloric acid salt]	< 0.05 µM	< 0.05 µM			
COc1cccc(CNC(=O)CC(N)c2ccc(C(=O)Nc3ccncc3)cc2)c1OC (centres unmarked) [Compound 238, 4-[1-Amino-2-(2,3-dimethoxy-benzylcarbamoyl)-ethyl]-N-pyridin-4-yl-benzamide]			0.05 to 0.5 µM	5 to 50 µM	
4-[1-Amino-2-(2,4- dimethoxy- benzylcarbamoyl)-ethyl]- N-pyridin-4-yl-benzamide [Compound 241]			0.05 to 0.5 µM	0.5 to 5 µM	
Cc1ccc(C(=O)NCC(N)c2ccc(C(=O)Nc3ccncc3)cc2)cc1 (centres unmarked) [Compound 86, 4-[1-amino-2-(4-methyl-benzoylamino)-ethyl]-N-pyridin-4-yl-benzamide]					IC50 (human ROCKα/ROCKII mix; [1]): 0.5 to 5 µM; IC50 (PKC epsilon; [1]): 5 to 50 µM
4-(1-Amino-2-{[2-(4-fluoro- phenyl)-acetyl]-methyl- amino}-ethyl)- N-pyridin-4-yl-benzamide [Compound 471]	0.5 to 5 µM	5 to 50 µM			
COc1cc(CC(=O)N2CCCC2C(N)c2ccc(C(=O)Nc3ccncc3)cc2)cc(OC)c1OC (centres unmarked) [Compound 532, 4-(Amino-{1-[2-(3,4,5-trimethoxy-phenyl)-acetyl]-pyrrolidin-2-yl}-methyl)-N-pyridin-4-yl-benzamide]	0.5 to 5 µM	5 to 50 µM			
CC(C)(NC(=O)CC(N)c1ccc(C(=O)Nc2ccncc2)cc1)c1ccc(Cl)cc1 (centres unmarked) [Compound 622, 4-{1-Amino-2-[1-(4-chloro-phenyl)-1-methyl-ethylcarbamoyl]-ethyl}-N-pyridin-4-yl-benzamide]			0.05 to 0.5 µM	0.05 to 0.5 µM	
CCCCC(=O)NCC(N)c1ccc(C(=O)Nc2ccncc2)cc1 (centres unmarked) [Compound 33, 4-(1-Amino-2-pentanoylamino-ethyl)-N-pyridin-4-yl-benzamide]					IC50 (human ROCKα/ROCKII mix; [1]): 0.5 to 5 µM; IC50 (PKC epsilon; [1]): 0.5 to 5 µM
NC(CC(=O)NCc1cccc(Br)c1)c1ccc(C(=O)Nc2ccncc2)cc1 (centres unmarked) [Compound 260, 4-[1-Amino-2-(3-bromo-benzylcarbamoyl)-ethyl]-N-pyridin-4-yl-benzamide]			0.05 to 0.5 µM	0.5 to 5 µM	
COc1ccc(CC(=O)N2CCCC2C(N)c2ccc(C(=O)Nc3ccncc3)cc2)c(OC)c1 (centres unmarked) [Compound 531, 4-(Amino-{1-[2-(2,4-dimethoxy-phenyl)-acetyl]-pyrrolidin-2-yl}-methyl)-N-pyridin-4-yl-benzamide]	0.5 to 5 µM	0.5 to 5 µM			
NC(c1ccc(C(=O)Nc2ccncc2)cc1)C1CCCN1C(=O)Cc1cncc(Br)c1 (centres unmarked) [Compound 543, 4-(Amino-{1-[2-(5-bromo-pyridin-3-yl)-acetyl]-pyrrolidin-2-yl}-methyl)-N-pyridin-4-yl-benzamide]	0.5 to 5 µM	5 to 50 µM			
NC(CC(=O)Nc1ccc(CO)cc1)c1ccc(C(=O)Nc2ccncc2)cc1 (centres unmarked) [Compound 320, 4-[1-Amino-2-(4-hydroxymethyl-phenyl-carbamoyl)-ethyl]-N-pyridin-4-yl-benzamide]			0.05 to 0.5 µM	0.5 to 5 µM	
